Several values for one entry are separate records, joined by “and”; a condition that tells them apart may be missing. Equal entries are not always repeated. Where two headings read alike, the source gives them in different places.
How the values were obtained:
Fusarium graminearum = assay: microbe, parasite or virus in culture; type: cell-based; settings: for Average Fungal Colony Diameter F.g / Growth Inhibition Rate F.g: sensitive strains
[1] = tested on: carbendazim-resistant Fusarium asiaticum; assay: microbe, parasite or virus in culture; type: cell-based; settings: for DON Biosynthesis Inhibition Rate / Toxin Production Capability: Jinggangmycin + Tebuconazole 0 + 0.1 μg/ml
powdery mildew [2] = type: in vivo, wheat
wheat scab [3] = type: in vivo
Fusarium asiaticum = assay: microbe, parasite or virus in culture; type: cell-based; settings: for Average Fungal Colony Diameter F.a / Growth Inhibition Rate F.a: sensitive strains
[4] = tested on: Fusarium graminearum and Fusarium asiaticum; assay: organism not typed; type: cell-based
leaf blight [5] = type: in vivo, wheat
wheat scab [6] = type: in vivo; settings: Preparation 100 (mL/mu); Jinggangmycin 0, Tebuconazole 20 g ai. agent/mu
[7] = type: in vivo, wheat
powdery mildew [8] = type: in vivo, wheat; remark: listed apart in the source
leaf blight [9] = type: in vivo, wheat; settings: Preparation 100 (mL/mu); Jinggangmycin 0, Tebuconazole 20 g ai. agent/mu
leaf blight [10] = type: in vivo, wheat; settings: Preparation 100 g/mu; Jinggangmycin 0, Tebuconazole 20 g ai. agent/mu
powdery mildew [11] = type: in vivo, wheat; remark: listed apart in the source
rust [12] = type: in vivo, wheat
powdery mildew [13] = type: in vivo, wheat; settings: Preparation 100 (mL/mu); Jinggangmycin 0, Tebuconazole 20 g ai. agent/mu
powdery mildew [14] = type: in vivo, wheat; settings: dosage g ai./mu: c1 Jinggangmycin, c2 Tebuconazole of the line
wheat scab [15] = type: in vivo; remark: listed apart in the source
powdery mildew [16] = type: in vivo, wheat; remark: listed apart in the source
leaf blight [17] = type: in vivo, wheat; remark: listed apart in the source
[18] = type: in vivo, wheat; remark: listed apart in the source
wheat scab [19] = type: in vivo; settings: Preparation 50 g/mu; Tebuconazole 10 g ai. agent/mu
wheat scab [20] = type: in vivo; settings: Preparation 100 g/mu; Jinggangmycin 0, Tebuconazole 20 g ai. agent/mu
powdery mildew [21] = type: in vivo, wheat; settings: Preparation 100 g/mu; Jinggangmycin 0, Tebuconazole 20 g ai. agent/mu
rust [22] = type: in vivo, wheat; remark: listed apart in the source
leaf blight [23] = type: in vivo, wheat; remark: listed apart in the source
rust [24] = type: in vivo, wheat; remark: listed apart in the source
rust [25] = type: in vivo, wheat; settings: Preparation 100 g/mu; Jinggangmycin 0, Tebuconazole 20 g ai. agent/mu
rust [26] = type: in vivo, wheat; settings: Preparation 100 (mL/mu); Jinggangmycin 0, Tebuconazole 20 g ai. agent/mu
wheat scab [27] = type: in vivo; remark: listed apart in the source
[28] = Preparation 15 g/mu, Tebuconazole 3 g ai. agent/mu
[29] = Preparation 22.5 g/mu, Tebuconazole 4.5 g ai. agent/mu
[30] = Preparation 30 g/mu, Tebuconazole 6 g ai. agent/mu
[31] = Preparation 37.5 g/mu, Tebuconazole 7.5 g ai. agent/mu
[32] = Preparation 50 g/mu, Tebuconazole 10 g ai. agent/mu
[33] = Tebuconazole 2.0 g ai. agent/mu
[34] = Tebuconazole 4.0 g ai. agent/mu
[35] = Tebuconazole 6.0 g ai. agent/mu
[36] = Tebuconazole 7.5 g ai. agent/mu
[37] = Tebuconazole 8.8 g ai. agent/mu
[38] = Tebuconazole 9.5 g ai. agent/mu
[39] = Tebuconazole 12.0 g ai. agent/mu
[40] = Tebuconazole 15.0 g ai. agent/mu
[41] = Tebuconazole 17.5 g ai. agent/mu
[42] = Tebuconazole 19.0 g ai. agent/mu

Substance: Tebuconazole
- Median Effective Concentration (EC50) for Growth Inhibition (Fusarium graminearum; F.g sensitive strains): 0.096 µg/mL
- Average Fungal Colony Diameter F.g (Fusarium graminearum; Tebuconazole 0.02 μg/mL): 42 mm
- Growth Inhibition Rate F.g (Fusarium graminearum; Tebuconazole 0.02 μg/mL): 34.2%
- Average Fungal Colony Diameter F.g (Fusarium graminearum; Tebuconazole 0.078 μg/mL): 32 mm
- Growth Inhibition Rate F.g (Fusarium graminearum; Tebuconazole 0.078 μg/mL): 47.5%
- Average Fungal Colony Diameter F.g (Fusarium graminearum; Tebuconazole 0.3125 μg/mL): 21 mm
- Growth Inhibition Rate F.g (Fusarium graminearum; Tebuconazole 0.3125 μg/mL): 72.1%
- Average Fungal Colony Diameter F.g (Fusarium graminearum; Tebuconazole 5.0 μg/mL): 9 mm
- Growth Inhibition Rate F.g (Fusarium graminearum; Tebuconazole 5.0 μg/mL): 88.0%
- DON Biosynthesis Inhibition Rate ([1]; 7 days): 4.2%
- Toxin Production Capability ([1]; 7 days): 87.42 μgDON/g by dry weight of hyphae
- DON Biosynthesis Inhibition Rate ([1]; 14 days): 0.6%
- Toxin Production Capability ([1]; 14 days): 52.50 μgDON/g by dry weight of hyphae
- inhibitory effect on toxin biosynthesis capability versus blank control ([1]; tebuconazole 0.1 μg/ml, seven and fourteen days): does not have significant inhibitory effects
- Disease Index Prevention Effect % Powdery Mildew (powdery mildew [2]; [28]): 48.7%
- Disease Index Prevention Effect % Powdery Mildew (powdery mildew [2]; [29]): 60.4%
- Disease Index Prevention Effect % Powdery Mildew (powdery mildew [2]; [30]): 64.9%
- Disease Index Prevention Effect % Powdery Mildew (powdery mildew [2]; [31]): 72.4%
- Disease Index Prevention Effect % Head Blight (wheat scab [3]; [29]): 48.2%
- Disease Index Prevention Effect % Head Blight (wheat scab [3]; [30]): 53.9%
- Median Effective Concentration (EC50) for Growth Inhibition (Fusarium asiaticum; F.a carbendazim-resistant strains): 0.116 µg/mL
- Median Effective Concentration (EC50) for Growth Inhibition (Fusarium asiaticum; F.a phenamacril-resistant strains): 0.111 µg/mL
- Median Effective Concentration (EC50) for Growth Inhibition (Fusarium asiaticum; F.a sensitive strains): 0.102 µg/mL
- Average Fungal Colony Diameter F.a (Fusarium asiaticum; Tebuconazole 0.02 μg/mL): 43 mm
- Growth Inhibition Rate F.a (Fusarium asiaticum; Tebuconazole 0.02 μg/mL): 32.9%
- Average Fungal Colony Diameter F.a (Fusarium asiaticum; Tebuconazole 0.078 μg/mL): 34 mm
- Growth Inhibition Rate F.a (Fusarium asiaticum; Tebuconazole 0.078 μg/mL): 48.8%
- Average Fungal Colony Diameter F.a (Fusarium asiaticum; Tebuconazole 0.3125 μg/mL): 22 mm
- Growth Inhibition Rate F.a (Fusarium asiaticum; Tebuconazole 0.3125 μg/mL): 70.8%
- Average Fungal Colony Diameter F.a (Fusarium asiaticum; Tebuconazole 5.0 μg/mL): 9 mm
- Growth Inhibition Rate F.a (Fusarium asiaticum; Tebuconazole 5.0 μg/mL): 88.0%
- activity of tebuconazole relative to carbendazim (by EC50) ([4]; sensitive strains): about 4.5 times
- activity of tebuconazole relative to phenamacril (by EC50) ([4]; sensitive strains): about 1.5 times
- inhibition rate on the hyphal growth of the head blight fungi ([4]; tebuconazole 0.1 μg/ml alone): about 50%
- Disease Index Prevention Effect % Leaf Blight (leaf blight [5]; [28]): 65.4%
- Disease Index Prevention Effect % Leaf Blight (leaf blight [5]; [31]): 68.5%
- Disease Index Prevention Effect % Leaf Blight (leaf blight [5]; [32]): 64.5%
- Disease Index Prevention Effect % Head Blight (wheat scab [6]): 84.6%
- Thousand Kernel Weight [7, 28]: 40 g
- Thousand Kernel Weight [7, 31]: 41.5 g
- Thousand Kernel Weight [7, 32]: 40.8 g
- Disease Index Prevention Effect % Powdery Mildew (powdery mildew [8]; [28]): 68.1%
- Disease Index Prevention Effect % Powdery Mildew (powdery mildew [8]; [31]): 73.5%
- Disease Index Prevention Effect % Powdery Mildew (powdery mildew [8]; [32]): 82.4%
- Disease Index Prevention Effect % Leaf Blight (leaf blight [9]): 83.6%
- Disease Index Prevention Effect % Leaf Blight (leaf blight [10]): 84.2%
- Disease Index Prevention Effect % Powdery Mildew (powdery mildew [11]; Tebuconazole 6 g ai. agent/mu): 62.4%
- Disease Index Prevention Effect % Powdery Mildew (powdery mildew [11]; Tebuconazole 9 g ai. agent/mu): 70.8%
- Disease Index Prevention Effect % Powdery Mildew (powdery mildew [11]; Tebuconazole 15 g ai. agent/mu): 76.4%
- Disease Index Prevention Effect % Powdery Mildew (powdery mildew [11]; Tebuconazole 21 g ai. agent/mu): 81.6%
- Disease Index Prevention Effect % Rust (rust [12]; [28]): 64.5%
- Disease Index Prevention Effect % Rust (rust [12]; [31]): 75.6%
- Disease Index Prevention Effect % Rust (rust [12]; [32]): 82.4%
- Disease Index Prevention Effect % Powdery Mildew (powdery mildew [13]): 88.2%
- Disease Index Prevention Effect % Powdery Mildew (powdery mildew [14]): 72.61% and 76.19% and 66.32% and 39.46%
- Disease Index Prevention Effect % Head Blight (wheat scab [15]; [33]): 12.9%
- Disease Index Prevention Effect % Head Blight (wheat scab [15]; [34]): 25.6%
- Disease Index Prevention Effect % Head Blight (wheat scab [15]; [35]): 42.5%
- Disease Index Prevention Effect % Head Blight (wheat scab [15]; [36]): 56.7%
- Disease Index Prevention Effect % Head Blight (wheat scab [15]; [37]): 61.5%
- Disease Index Prevention Effect % Head Blight (wheat scab [15]; [38]): 65.4%
- Disease Index Prevention Effect % Head Blight (wheat scab [15]; [39]): 68.4%
- Disease Index Prevention Effect % Head Blight (wheat scab [15]; [40]): 71.8%
- Disease Index Prevention Effect % Head Blight (wheat scab [15]; [41]): 73.9%
- Disease Index Prevention Effect % Head Blight (wheat scab [15]; [42]): 74.2%
- Disease Index Prevention Effect % Powdery Mildew (powdery mildew [16]; [33]): 15.4%
- Disease Index Prevention Effect % Powdery Mildew (powdery mildew [16]; [34]): 28.5%
- Disease Index Prevention Effect % Powdery Mildew (powdery mildew [16]; [35]): 36.4%
- Disease Index Prevention Effect % Powdery Mildew (powdery mildew [16]; [36]): 58.2%
- Disease Index Prevention Effect % Powdery Mildew (powdery mildew [16]; [37]): 60.5%
- Disease Index Prevention Effect % Powdery Mildew (powdery mildew [16]; [38]): 65.2%
- Disease Index Prevention Effect % Powdery Mildew (powdery mildew [16]; [39]): 76.5%
- Disease Index Prevention Effect % Powdery Mildew (powdery mildew [16]; [40]): 74.5%
- Disease Index Prevention Effect % Powdery Mildew (powdery mildew [16]; [41]): 76.4%
- Disease Index Prevention Effect % Powdery Mildew (powdery mildew [16]; [42]): 81.2%
- Disease Index Prevention Effect % Leaf Blight (leaf blight [17]; Tebuconazole 6 g ai. agent/mu): 64.5%
- Disease Index Prevention Effect % Leaf Blight (leaf blight [17]; Tebuconazole 9 g ai. agent/mu): 70.1%
- Disease Index Prevention Effect % Leaf Blight (leaf blight [17]; Tebuconazole 15 g ai. agent/mu): 72.4%
- Disease Index Prevention Effect % Leaf Blight (leaf blight [17]; Tebuconazole 21 g ai. agent/mu): 73.5%
- Thousand Kernel Weight ([18]; Tebuconazole 6 g ai. agent/mu): 40.5 g
- Thousand Kernel Weight ([18]; Tebuconazole 9 g ai. agent/mu): 41.5 g
- Thousand Kernel Weight ([18]; Tebuconazole 15 g ai. agent/mu): 42 g
- Thousand Kernel Weight ([18]; Tebuconazole 21 g ai. agent/mu): 42.7 g
- Disease Index Prevention Effect % Head Blight (wheat scab [19]): 72.4%
- Disease Index Prevention Effect % Head Blight (wheat scab [20]): 80.1%
- Disease Index Prevention Effect % Powdery Mildew (powdery mildew [21]): 96.2%
- Disease Index Prevention Effect % Rust (rust [22]; Tebuconazole 6 g ai. agent/mu): 61.5%
- Disease Index Prevention Effect % Rust (rust [22]; Tebuconazole 9 g ai. agent/mu): 72.6%
- Disease Index Prevention Effect % Rust (rust [22]; Tebuconazole 15 g ai. agent/mu): 78.3%
- Disease Index Prevention Effect % Rust (rust [22]; Tebuconazole 21 g ai. agent/mu): 86.1%
- Disease Index Prevention Effect % Leaf Blight (leaf blight [23]; [33]): 14.5%
- Disease Index Prevention Effect % Leaf Blight (leaf blight [23]; [34]): 19.2%
- Disease Index Prevention Effect % Leaf Blight (leaf blight [23]; [35]): 29.5%
- Disease Index Prevention Effect % Leaf Blight (leaf blight [23]; [36]): 71.2%
- Disease Index Prevention Effect % Leaf Blight (leaf blight [23]; [37]): 73.1%
- Disease Index Prevention Effect % Leaf Blight (leaf blight [23]; [38]): 74.2%
- Disease Index Prevention Effect % Leaf Blight (leaf blight [23]; [39]): 76.5%
- Disease Index Prevention Effect % Leaf Blight (leaf blight [23]; [40]): 78.9%
- Disease Index Prevention Effect % Leaf Blight (leaf blight [23]; [41]): 80.3%
- Disease Index Prevention Effect % Leaf Blight (leaf blight [23]; [42]): 81.2%
- Disease Index Prevention Effect % Rust (rust [24]; [33]): 18.0%
- Disease Index Prevention Effect % Rust (rust [24]; [34]): 32.1%
- Disease Index Prevention Effect % Rust (rust [24]; [35]): 45.2%
- Disease Index Prevention Effect % Rust (rust [24]; [36]): 71.5%
- Disease Index Prevention Effect % Rust (rust [24]; [37]): 78.4%
- Disease Index Prevention Effect % Rust (rust [24]; [38]): 80.5%
- Disease Index Prevention Effect % Rust (rust [24]; [39]): 81.8%
- Disease Index Prevention Effect % Rust (rust [24]; [40]): 85.6%
- Disease Index Prevention Effect % Rust (rust [24]; [41]): 89.4%
- Disease Index Prevention Effect % Rust (rust [24]; [42]): 92.8%
- Disease Index Prevention Effect % Rust (rust [25]): 98.5%
- Disease Index Prevention Effect % Rust (rust [26]): 82.4%
- Disease Index Prevention Effect % Head Blight (wheat scab [27]; Tebuconazole 6 g ai. agent/mu): 53.4%
- Disease Index Prevention Effect % Head Blight (wheat scab [27]; Tebuconazole 9 g ai. agent/mu): 65.8%
- Disease Index Prevention Effect % Head Blight (wheat scab [27]; Tebuconazole 15 g ai. agent/mu): 70.4%
- Disease Index Prevention Effect % Head Blight (wheat scab [27]; Tebuconazole 21 g ai. agent/mu): 76.8%

From patent publication US10588316B2 (priority 2015, dated 2020)
